{"source": "patent US12414948B2", "about": "“Methods” (INTRA-CELLULAR THERAPIES, INC., priority 2022, dated 2025)", "test_system": "hippocampal mRNA (Il1b, Il6, Tnfa, Il10, Cldn5)", "experiment": "Hippocampal mRNA (qRT-PCR) after acute restraint stress", "assay_type": "in vivo, mouse", "settings": "mice, 2 h restraint stress, Luma 3 mg/kg IP", "description": "Quantitative Real-Time PCR. Mouse hippocampal tissue is homogenized with glass beads in 1 mL of TRIzol reagent using a BeadBeater (Biospec Products, Bartlesville, OK). Heavy phase-lock gel tubes enabled separation of phases following the addition of 400 μL chloroform to the sample and centrifugation at 12,000 rpm for 10 minutes at room temperature. RNA is extracted using Qiagen Rneasy kit (Qiagen, Hilden, Germany). For cDNA synthesis, 2 μg of total RNA is used (SuperScript IV Reverse Transcriptase; ThermoFisher Scientific, Waltham, MA). The purity and concentration of RNA is measured with a Nanodrop spectrophotometer; the optical density (OD) 260/280 and OD 260/230 are within 1.8-2.3. In the hippocampus, 4 key markers of pro- and anti-inflammatory cytokines and chemokines (Il1b: ID Mm00434228_m1, Tnfa: ID Mm00443258_m1, 116: ID Mm00446190_m1, and I110: ID Mm01288386_m1; ThermoFisher Scientific) are initially chosen for analysis (n=5-12 per group). In subsequent experiments, the transcripts for other markers of inflammation are chosen for analysis including Icam1 (ID Mm00516023_m1; a cell adhesion molecule involved in immune cell migration), Cldn5 (ID Mm00727012_s1; a tight junctions protein), colony stimulating factor 1 (Csf1: ID Mm00432686_m1; a factor that regulates microglia function) and its receptor Csf1r (ID Mm01266652_m1), and the nucleotide binding and oligomerization domain-like receptor family pyrin domain-containing 3 inflammasome complex (Nlrp3: Mm00840904_m1). Gapdh (ID Mm99999915_g1) is chosen as a housekeeping gene. […] All mRNAs are measured by qRT-PCR on ABI Prism 7900HT system using TaqMan Gene Expression Assays. […]\nUsing similar procedures as described above, serum corticosterone levels and hippocampal Cldn5 mRNA expression are measured as well (corticosterone is measured using a commercial ELISA kit).", "key": {"[1]": {"settings": "relative change normalized to control (Dct method)"}}, "data": [{"smiles": "CN1CCN2c3c(cccc31)[C@@H]1CN(CCCC(=O)c3ccc(F)cc3)CC[C@@H]12", "note": "[Luma, lumateperone]", "values": [{"measurement": "Hippocampal mRNA expression Cldn5", "setting": "normalized to control", "result": 0.330}, {"measurement": "Hippocampal cytokine mRNA expression IL-1b", "setting": "[1]", "result": 0.39}, {"measurement": "Hippocampal cytokine mRNA expression IL-6", "setting": "[1]", "result": "−0.051"}]}]}
